Results as given in patent publication US11932654B2, “Nimbolide analogs as anti-cancer agents and preparation thereof” (priority 2018, dated 2024).
pIC50: −log10 of the molar value.

Tests used:
[1] = tested on: DU-145 prostate cancer cell line; assay: In vitro anticancer activity, SRB assay, DU-145; format: cell-based; settings: Homo sapiens, 48 h, NA = Not Active
Procedure: (§1) Cell culture: Human lung adenocarcinoma cell line (A549 cell line), pancreatic cancer cell line (Panc-1, Pan-02), prostate cancer cell line (DU145, PC3), Brest cancer cell line (MCF-7) was grown in DIEM (Dulbecco's modifications of eagle's medium with L-glutamine & 4.5 g/L glucose) supplemented with fetal bovine serum in a humidified atmosphere of a 5% CO2 at 37° C.
(§2) In vitro anticancer activity: Cells were harvested from exponential phase cultures by trypsinization, counted and plated in 96-well plate. Optimal seeding densities for different cell lines in each plate were 5000 cells per well. After 24 h cells were treated with \ the newly synthesized compound at a dose range of 0.1-100 μm final concentration. Thereafter, cells were allowed to grow for 48 h before determination of cell survival by the SRB assay. Then the cells were fixed with 10% cold trichloroacetic acid for 1 h at 4° C. After two washes with deionized water, fixed cells were stained with 50 μL of SRB solution (1% in acetic acid) for 30 min and subsequently washed twice with 1% acetic acid to remove unbound stain. The plates were left to dry at room temperature and bound stain was solubilized with 100 μL of 10 mM buffered Tris base for reading the […] at 540 nm.

[2] = tested on: Pan-02 cells xenograft tumors; assay: Pancreatic cancer xenograft model, anti-tumor activity; format: in vivo, nude mice; settings: for Tumor Volume: 5 doses in 12 days, Pan-02 xenograft, mean ± SE
Procedure: In vivo studies: Materials and methods: Animals and cell lines: Healthy 8-10 week old nude mice of either sex, weighing between 20 g and 25 g were used as experimental animals for tumor induction. All animals were maintained under standardized animal house conditions (12 h light and 12 h dark condition) at controlled temperature (22±1° C.) and relative humidity (60-70%) in institutional registered animal house that was approved by Committee for the Purpose of Control and Supervision of Experiments on Animals (CPCSEA). They were maintained with standard pellet diet and water ad libitum. The institutional animal ethics committee approved the experimental protocol. CPCSEA guidelines were adhered to during the maintenance of animals and experiments. Pancreatic cancer cell line (Pan-02) was obtained from American Type Culture Collection and was cultured in RPMI medium.
(§3) Establishment of Pancreatic cancer xenograft model: To establish tumor in mice, Pan-02 cells (7×10^6) were suspended in 1:1 RPMI medium mixed with matrigel and subcutaneously implanted on right flank of the each mice. The injection sites were examined daily for the appearance of tumors. On 10th day these animals were randomized and divided into 3 groups (6 mice in each group). Group I served as control group received 20% ethanol three times in a week. Test group animals in Group II and III received intratumoral injection of IM-1372-Kn-13 at 10 mg and 25 mg/kg body weight respectively three times in a week. All groups received 5 repeated doses in 12 days. Mice were weighed and tumor volumes were measured 3 times a week by Vernier caliper. Tumor volume in individual mice was calculated by the following formula. 0.5×L (W)^2, Where L is length, W is width of the tumor. The control group animals were euthanized when tumor volume is reached heavier to animal. One-week after completion of treatment period, the animals were sacrificed, and tumors were excised, fixed, and embedded in paraffin. At the end of treatment, blood samples were collected to perform clinical biochemistry.

[3] = tested on: Pan-02 pancreatic cancer cell line; assay: In vitro anticancer activity, SRB assay, Pan-02; format: cell-based; settings: Pan02, 48 h
Procedure: as §1, §2

[4] = tested on: Panc-1 pancreatic cancer cell line; assay: In vitro anticancer activity, SRB assay, Panc-1; format: cell-based; settings: Homo sapiens, 48 h, NA = Not Active
Procedure: as §1, §2

[5] = Biochemical analysis of serum of tumor xenograft mice; format: in vivo, nude mice; settings: for Albumin / Alkaline phosphatase / Creatinine / Glucose / SGOT / SGPT / Total protein / Urea: xenograft mice, mean ± SE
Procedure: as §3
Biochemical analysis: In acute toxicity experiment, blood samples were collected from all the animals 1 week after the last dose and mice were sacrificed by cervical decapitation. The obtained serum was analyzed in clinical chemistry for the assessment of liver function tests (LFT), activity of serum alkaline phosphatase (ALP), alanine aminotransferase (ALT), aspartate aminotransferase (AST), kidney function tests (RFT) (serum urea and creatinine). The same tests were performed for serum samples collected from three groups of tumor xenograft mice used for determining in vivo activity of test compound against pancreatic cancer. The measurement of these biochemical parameters was done in Clinical Biochemical analyzer (Tulip coralab 3000™).

[6] = tested on: A549 lung adenocarcinoma cell line; assay: In vitro anticancer activity, SRB assay, A549; format: cell-based; settings: Homo sapiens, 48 h, NA = Not Active
Procedure: as §1, §2

[7] = Acute toxicity test with histopathology
Procedure: Acute toxicity test: Safety tests begin with acute toxicity testing, where the animals are given a single dose of the test compound. The aim of the tests is to determine the range between the dose that causes no adverse effect and the dose that is life-threatening. […] Different doses (50, 25, 10, and 5 mg/kg body weight) of the test compound are given to the animals separately through IP injection. Post injection, the animals were monitored for the first 4 h and observed at every hourly interval for next 24 h. Further, animals were observed everyday for 14 days for any signs of toxic effects and behavior of animals. On day 14 all the surviving animals are sacrificed by a humane method and dissected to investigate signs of toxicity internally. […] If the drug is intended for the treatment of life-threatening diseases, toxicity is less of a concern than in a drug intended for use in healthy individuals.
Histopathological examination: For pathological studies, 5 μm sections of formalin-fixed, paraffin-embedded tissue were prepared and stained with haematoxylin and eosin. After haematoxylin-eosin (HE) staining, the slides were observed and the images were taken using optical microscope (Axioplan-II imaging). All slides were reviewed in a blinded fashion by a single pathologist and assessed for the presence of necrotic lesions (nodules) in the tumors and organs of different groups of mice.

NIH3T3 cells = assay: In vitro anticancer activity, SRB assay, NIH3T3; format: cell-based
Procedure: as §2

COC(=O)C[C@H]1[C@]2(C)C3=C(C)[C@H](C4=CC5OC4C(C(=O)OC)=C5C(=O)OC)C[C@@H]3O[C@@H]2[C@@H]2OC(=O)[C@]3(C)C=CC(=O)[C@@]1(C)C23 (some centres unmarked) [A4]
pIC50 [1]: 6.24 | Tumor Volume ([2]; 10 mg/kg intratumoral, nude mice): 181.306 ± 12.7 mm^3 | body weight and food intake ([2]; 10 mg/kg, 25 mg/kg body weight, intratumoral, nude mice): did not cause any loss in body weight and food intake | Tumor Volume ([2]; 25 mg/kg intratumoral, nude mice): 109.46 ± 7.1 mm^3 | average volume of tumors compared to vehicle-treated animals ([2]; 10 and 25 mg/kg intratumoral, p<0.0001): significantly decreased | pIC50 [3]: 6.28 | pIC50 [4]: 5.04 | serum total protein and albumin levels ([5]; group II and III compared to control group I): significantly increased | serum ALT, AST and ALP enzyme activities ([5]; treated xenograft groups vs elevated control group I): returned to normal | elevated levels of serum urea and creatinine ([5]; tumor-bearing mice, compared to group I): significantly fetched down | Albumin ([5]; 10 mg/kg): 3.16 ± 0.2 g/dL | Alkaline phosphatase ([5]; 10 mg/kg): 685.26 ± 28.8 U/L | Creatinine ([5]; 10 mg/kg): 1.56 ± 0.4 mg/dL | Glucose ([5]; 10 mg/kg): 77.60 ± 3.0 mg/dL | SGOT ([5]; 10 mg/kg): 56.12 ± 5.8 U/L | SGPT ([5]; 10 mg/kg): 47.05 ± 5.8 U/L | Total protein ([5]; 10 mg/kg): 6.24 ± 0.5 g/dL | Urea ([5]; 10 mg/kg): 46.81 ± 5.8 mg/dL | Albumin ([5]; 25 mg/kg): 3.61 ± 0.1 g/dL | Alkaline phosphatase ([5]; 25 mg/kg): 545.63 ± 24.9 U/L | Creatinine ([5]; 25 mg/kg): 0.80 ± 0.1 mg/dL | Glucose ([5]; 25 mg/kg): 108.42 ± 4.7 mg/dL | SGOT ([5]; 25 mg/kg): 32.20 ± 2.4 U/L | SGPT ([5]; 25 mg/kg): 24.49 ± 4.0 U/L | Total protein ([5]; 25 mg/kg): 8.05 ± 0.3 g/dL | Urea ([5]; 25 mg/kg): 41.23 ± 3.7 mg/dL | pIC50 [6]: 5.34 | organ histopathology ([7]; 25 mg/kg body weight): all organs including liver, kidney and spleen appeared normal | survival ([7]; 25 mg/kg, 10 mg/kg and 5 mg/kg): survived beyond the 24 h of observation | kidney histopathology ([7]; 50 mg/kg body weight): moderate capsular thickening and fibrosis in the renal capsules | liver histopathology ([7]; 50 mg/kg body weight): minor inflammation in the liver | adverse gastrointestinal effects ([7]; all the mice used in the experiment): no adverse gastrointestinal effects were observed | mortality ([7]; one mouse that received 50 mg/kg): died within 24 h | toxic effects in acute toxicity studies ([7]; up to 50 mg/kg): failed to show any toxic effects | cytotoxic activity (NIH3T3 cells): no activity was observed
